In brackets after ≈: the same amount, converted by molar mass.
Key:
Escherichia coli [1] = test: Antibacterial activity against Escherichia coli AR0493 harboring mcr-1 plasmid assessed as inhibition of bacterial growth; assay type: functional
[2] = Selectivity index, ratio of GI50 for cytotoxicity against human HeLa cells to MRC for Potentiation of colistin-induced antibacterial activity against Escherichia coli AR0493 harboring mcr-1 plasmid; assay type: toxicity, cell-based; conditions: read-out: Selectivity Index
[3] = Cytotoxicity against human HeLa cells assessed as inhibition of cell growth by cell viability assay; assay type: toxicity, cell-based
Escherichia coli [4] = test: Potentiation of colistin-induced antibacterial activity against Escherichia coli AR0493 harboring mcr-1 plasmid assessed as minimum resensitizing concentration; assay type: functional
Escherichia coli [5] = test: Potentiation of colistin-induced antibacterial activity against Escherichia coli AR0538 harboring mcr-2 plasmid assessed as colistin MIC at 1 ug/ml; assay type: functional; conditions: dose 1 µg/ml
Pseudomonas aeruginosa [6] = test: Potentiation of colistin-induced antibacterial activity against Pseudomonas aeruginosa AR0257 assessed as colistin MIC at 1 ug/ml; assay type: functional; conditions: dose 1 µg/ml
Escherichia coli [7] = test: Potentiation of colistin-induced antibacterial activity against Escherichia coli AR0493 harboring mcr-1 plasmid assessed as colistin MIC at 1 ug/ml; assay type: functional; conditions: dose 1 µg/ml
Acinetobacter baumannii [8] = test: Potentiation of colistin-induced antibacterial activity against Acinetobacter baumannii AR0310 assessed as colistin MIC at 1 ug/ml; assay type: functional; conditions: dose 1 µg/ml
Pseudomonas aeruginosa [9] = test: Potentiation of colistin-induced antibacterial activity against Pseudomonas aeruginosa AR0239 assessed as colistin MIC at 1 ug/ml; assay type: functional; conditions: dose 1 µg/ml
Salmonella typhimurium [10] = test: Potentiation of colistin-induced antibacterial activity against Salmonella Typhimurium AR0539 harboring mcr-3 plasmid assessed as colistin MIC at 1 ug/ml; assay type: functional, Salmonella enterica subsp. enterica serovar Typhimurium; conditions: Salmonella enterica, dose 1 µg/ml
Klebsiella pneumoniae [11] = test: Potentiation of colistin-induced antibacterial activity against Klebsiella pneumoniae AR0497 harboring mcr-1 plasmid assessed as colistin MIC at 1 ug/ml; assay type: functional; conditions: dose 1 µg/ml
Salmonella typhimurium [12] = test: Potentiation of colistin-induced antibacterial activity against Salmonella Typhimurium AR0635 harboring mcr-4 plasmid assessed as colistin MIC at 1 ug/ml; assay type: functional, Salmonella enterica subsp. enterica serovar Typhimurium; conditions: Salmonella enterica, dose 1 µg/ml
Klebsiella pneumoniae [13] = test: Antibacterial activity against Klebsiella pneumoniae AR0497 harboring mcr-1 plasmid assessed as inhibition of bacterial growth; assay type: functional, organism-based
Escherichia coli [14] = test: Antibacterial activity against Escherichia coli AR0538 harboring mcr-2 plasmid assessed as inhibition of bacterial growth; assay type: functional, organism-based
Acinetobacter baumannii [15] = test: Antibacterial activity against Acinetobacter baumannii AR0310 assessed as inhibition of bacterial growth; assay type: functional, organism-based
Pseudomonas aeruginosa [16] = test: Antibacterial activity against Pseudomonas aeruginosa AR0239 assessed as inhibition of bacterial growth; assay type: functional, organism-based
Salmonella typhimurium [17] = test: Antibacterial activity against Salmonella Typhimurium AR0539 harboring mcr-3 plasmid assessed as inhibition of bacterial growth; assay type: functional, organism-based; conditions: Salmonella enterica subsp. enterica serovar Typhimurium
Pseudomonas aeruginosa [18] = test: Antibacterial activity against Pseudomonas aeruginosa AR0257 assessed as inhibition of bacterial growth; assay type: functional, organism-based
Salmonella typhimurium [19] = test: Antibacterial activity against Salmonella Typhimurium AR0635 harboring mcr-4 plasmid assessed as inhibition of bacterial growth; assay type: functional, organism-based; conditions: Salmonella enterica subsp. enterica serovar Typhimurium

Molecule	MIC (Escherichia coli [1]) [µg/mL]	selectivity ratio [2]	GI50 [3] [µg/mL]	MRC (Escherichia coli [4]) [µg/mL]	also measured
Cc1cccc(Nc2nc3nonc3nc2Nc2cccc(C)c2)c1	> 64	30	15 (≈ 45.1 µM)	0.5	
COc1ccccc1Nc1nc2nonc2nc1O	> 64	> 25	> 100	4	
Clc1cccc(Nc2nc3nonc3nc2Nc2cccc(Cl)c2)c1	> 64	44	11 (≈ 29.5 µM)		MIC (Escherichia coli [5]): 1 µg/mL; MIC (Pseudomonas aeruginosa [6]): 2 µg/mL; MIC (Escherichia coli [7]): 1 µg/mL; MIC (Acinetobacter baumannii [8]): 0.25 µg/mL; MIC (Pseudomonas aeruginosa [9]): 1 µg/mL; MIC (Salmonella typhimurium [10]): 1 µg/mL; MIC (Klebsiella pneumoniae [11]): 1 µg/mL; MIC (Salmonella typhimurium [12]): 1 µg/mL
COc1cccc(Nc2nc3nonc3nc2Nc2cccc(OC)c2)c1				2	
COLISTIN	8				MIC (Klebsiella pneumoniae [13]): 8 µg/mL; MIC (Escherichia coli [14]): 8 µg/mL; MIC (Acinetobacter baumannii [15]): 32 µg/mL; MIC (Pseudomonas aeruginosa [16]): 4 µg/mL; MIC (Salmonella typhimurium [17]): 8 µg/mL; MIC (Pseudomonas aeruginosa [18]): 8 µg/mL; MIC (Salmonella typhimurium [19]): 32 µg/mL
Cc1cccc(Nc2nc3nonc3nc2Nc2cccc(OC(F)(F)F)c2)c1	> 64	24	12 (≈ 29.8 µM)	0.5	
O=c1[nH]c2nonc2nc1Nc1cccc(Cl)c1				16	
COc1cccc(Nc2nc3nonc3nc2O)c1				16	
COc1ccccc1Nc1nc2nonc2nc1Nc1cccc(OC(F)(F)F)c1				>64	
Oc1nc2nonc2nc1Nc1ccc(F)cc1				32	
Oc1nc2nonc2nc1Nc1ccccc1F				64	
Oc1nc2nonc2nc1Nc1ccccc1Cl				16	
Oc1nc2nonc2nc1Nc1ccccc1OC(F)(F)F				>64	
Fc1ccc(Nc2nc3nonc3nc2Nc2ccc(F)cc2)cc1	> 64	19	9.4 (≈ 27.6 µM)	0.5	
COc1ccc(Nc2nc3nonc3nc2O)cc1				>64	
Oc1nc2nonc2nc1Nc1cccc(F)c1				64	
Cc1ccc(Nc2nc3nonc3nc2O)cc1				64	
COc1ccc(Nc2nc3nonc3nc2Nc2ccc(OC)cc2)cc1				>64	

Molecule	MIC (Escherichia coli [1]) [µg/mL]	selectivity ratio [2]	GI50 [3] [µg/mL]	MRC (Escherichia coli [4]) [µg/mL]	also measured
Clc1ccc(Nc2nc3nonc3nc2Nc2ccc(Cl)cc2)cc1	> 64	56	28 (≈ 75 µM)	0.5	MIC (Escherichia coli [5]): 2 µg/mL; MIC (Pseudomonas aeruginosa [6]): 2 µg/mL; MIC (Escherichia coli [7]): 1 µg/mL; MIC (Acinetobacter baumannii [8]): 0.25 µg/mL; MIC (Pseudomonas aeruginosa [9]): 1 µg/mL; MIC (Salmonella typhimurium [10]): 2 µg/mL; MIC (Klebsiella pneumoniae [11]): 1 µg/mL; MIC (Salmonella typhimurium [12]): 1 µg/mL
Oc1nc2nonc2nc1Nc1ccc(OC(F)(F)F)cc1				16	
Clc1ccccc1Nc1nc2nonc2nc1Nc1ccccc1Cl				8	
Oc1nc2nonc2nc1Nc1ccc(Cl)cc1				32	
Cc1ccccc1Nc1nc2nonc2nc1O				64	
Oc1nc2nonc2nc1Nc1ccccc1				>64	
FC(F)(F)Oc1cccc(Nc2nc3nonc3nc2Nc2ccccc2)c1				1	
FC(F)(F)Oc1cccc(Nc2nc3nonc3nc2Nc2cccc(OC(F)(F)F)c2)c1	> 64	17	4.3 (≈ 9.1 µM)	0.25	
COc1ccccc1Nc1nc2nonc2nc1Nc1ccccc1OC				>64	
FC(F)(F)Oc1ccc(Nc2nc3nonc3nc2Nc2ccc(OC(F)(F)F)cc2)cc1	> 64	23	5.7 (≈ 12.1 µM)	0.25	
FC(F)(F)Oc1ccccc1Nc1nc2nonc2nc1Nc1ccccc1OC(F)(F)F				>64	
Cc1ccc(Nc2nc3nonc3nc2Nc2ccc(C)cc2)cc1	> 64	22	11 (≈ 33.1 µM)	0.5	
Oc1nc2nonc2nc1Nc1cccc(OC(F)(F)F)c1	> 64	6	24 (≈ 76.6 µM)	4	
Cc1cccc(Nc2nc3nonc3nc2O)c1				8	
Cc1ccccc1Nc1nc2nonc2nc1Nc1ccccc1C				8	
Fc1cccc(Nc2nc3nonc3nc2Nc2cccc(F)c2)c1	> 64	40	20 (≈ 58.8 µM)	0.5	
c1ccc(Nc2nc3nonc3nc2Nc2ccccc2)cc1	> 64	8.8	4.4 (≈ 14.5 µM)	0.5	
